# Test results from patent US11597708B2, “Inhibitors of heat shock factors and uses thereof” (HSF Pharmaceuticals SA, priority 2016, dated 2023).
# Columns and labels:
# [1] = Dissolution in aqueous Kleptose HPB stock solution; type: physicochemical; conditions: 85 mg in 8.5 ml of 357 mg/ml Kleptose HPB stock solution, overnight, slow agitation, room temperature
# Description: 1. Prepare 15 ml of a 357 mg/ml stock solution of Kleptose HPB (Roquette Pharma) in water (of which the amount not used under 2 is reserved for vehicle controls).
# 2. Dissolve 85 mg of compound 0115 in 8.5 ml of Kleptose stock solution by incubating the solution overnight with slow agitation (at room temperature). Over 90% of the drug substance will be dissolved after this incubation.
# LexA-hHSF = target: T1, LexA-hHSF (Homo sapiens, UniProt Q00613); test: Z74 cell-based reporter assay: heat-induced FLuc expression controlled by chimeric LexA-HSF1; conditions: IHSF 001 tested at 25 μM
# T1 construct: expressed in transfected cells; the other entry of the earlier key: lexA (P0A7C2, LexA repressor)
# T1 sequence (Q00613 with tags, fused parts or gaps): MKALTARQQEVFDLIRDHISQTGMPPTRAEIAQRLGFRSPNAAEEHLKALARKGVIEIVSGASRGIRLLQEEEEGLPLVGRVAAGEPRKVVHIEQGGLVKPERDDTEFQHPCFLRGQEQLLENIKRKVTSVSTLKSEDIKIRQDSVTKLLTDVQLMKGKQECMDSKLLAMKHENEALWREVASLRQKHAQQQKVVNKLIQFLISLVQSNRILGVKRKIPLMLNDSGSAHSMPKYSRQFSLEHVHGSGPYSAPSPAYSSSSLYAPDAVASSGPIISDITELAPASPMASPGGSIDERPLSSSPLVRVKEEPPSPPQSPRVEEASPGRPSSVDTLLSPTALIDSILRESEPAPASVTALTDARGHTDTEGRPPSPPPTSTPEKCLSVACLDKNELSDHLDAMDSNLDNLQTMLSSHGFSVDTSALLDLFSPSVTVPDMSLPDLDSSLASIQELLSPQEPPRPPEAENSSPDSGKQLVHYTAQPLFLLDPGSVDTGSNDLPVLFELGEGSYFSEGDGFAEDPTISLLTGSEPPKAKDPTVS
# Description: For screening this sublibrary, a cell-based assay was developed. We opted for a cell-based assay, because a cell-free assay would have had to be a DNA-binding assay. Such an assay would have limited discovery to molecules capable of interfering with the DNA-binding function of HSF1. This was thought to be too narrow a focus, considering that three of the four cavities identified in the HSF1 DNA-binding domain are not near the DNA interaction region. A straightforward cell-based assay, in which a HSF1-responsive gene would be assayed, was considered likely to be over-inclusive. Compounds would be scored as hits that inhibit any factor that is involved in HSF1 activation or prevents HSF1 deactivation. These factors include protein kinases, activators of protein phosphatases, factors affecting HSF1 mRNA stability, HSP90, HDAC6, etc. For developing a more discriminating cell-based assay, advantage was taken of the modular nature of HSF1. […] The cell-based assay developed (see below for the particular format employed) compared transactivation by wild type HSF1 and chimeric HSF1 in cells exposed to an HSF1-activating heat treatment in the presence of a sublibrary compound. A compound was scored as a hit, if it inhibited the activity of wild type HSF1 but not of chimeric HSF1.
# The cell-based assay made use of HeLa-derived cell line Z74 that stably contains a gene for chimeric transcription factor LexA-(human) HSF1 under the control of a CMV early promoter, a firefly luciferase (flue) gene driven by a promoter responsive to the latter chimeric transcription factor and a Renilla luciferase (rluc) gene functionally linked to an hsp70b promoter and therefore controlled by endogenous HSF1 (FIG. 1A). As is shown in FIGS. 1B & C, the reporter genes responded similarly to heat dose, i.e., their activation depended on both duration of heat exposure and temperature of the exposure. […] Depletion of HSF1 (and LexA-HSF1) by siRNA supported the notion that this stress regulation is mediated by HSF1 (and LexA-HSF1). Therefore, the Z74 line was well suited for use in a screening assay aimed at discovering molecules that inhibit heat-induced HSF1 activity through interaction with the transcription factor's DNA-binding domain.
# (§1) The compounds of the afore-mentioned biased sublibrary were screened in cell line Z74 at 12.5 and 25 μM concentrations. Typically, Z74 cultures in 96-well plates were exposed to compound or vehicle for 2 h, heat-treated at 43.0° C. for 30 min, and incubated further for 6 h at 37° C. to allow for accumulation of the luciferases. RLuc and FLuc activities were determined, typically using the Dual-Glo® Luciferase Assay System (Promega Corp., Madison, Wis.), and reading luciferase light counts in a Wallac Microbeta Trilux-1450 Luminometer (PerkinElmer, Waltham, Mass.). IHSF 001 was one of two library compounds that inhibited RLuc expression but not FLuc expression in heat-treated Z74 cells (Table 1; FIG. 2A). Therefore, IHSF 001 is an inhibitor of HSF1 function that specifically acts through the HSF1 DNA-binding domain. […] A corroborating experiment utilized a cell line containing an hsp70b promoter-driven fluc gene. […] IHSF 001 is (E)-ethyl 4-oxo-4-(thiazol-2-ylamino)but-2-enoate. The compound can be obtained from commercial sources (e.g., AKE-PB-90340538, Akos).
# [2] = test system: hsp70b promoter-driven fluc gene; test: Corroborating experiment in a cell line containing an hsp70b promoter-driven fluc gene; type: cell-based; conditions: data not shown
# Description: as §1
SMILES,drug substance dissolved [1],inhibition at 25 µM (LexA-hHSF; Experiment No. 1),inhibition at 25 µM (LexA-hHSF; Experiment No. 2),inhibition at 25 µM (LexA-hHSF; Experiment No. 3),inhibition at 25 µM (LexA-hHSF; Experiment No. 4),inhibition at 25 µM (LexA-hHSF; Experiment No. 5),inhibition at 25 µM (LexA-hHSF; Experiment No. 6),inhibition at 25 µM (LexA-hHSF; Experiment No. 7),inhibition at 25 µM (LexA-hHSF; Experiment No. 8),inhibition at 25 µM (LexA-hHSF; Experiment No. 9),FLuc expression in hsp70b promoter-driven fluc line [2]
"CN(C(=O)/C=C/C1=NCCCO1)c1ncc(-c2cccnc2)s1 [IHSF 115, (E)-3-(5,6-Dihydro-4H-[1,3]oxazin-2-yl)-N-methyl-N-(5-pyridin-3-yl-thiazol-2-yl)-acrylamide]",Over 90%,–,–,–,–,–,–,–,–,–,–
"CCOC(=O)/C=C/C(=O)Nc1nccs1 [IHSF 001, (E)-ethyl 4-oxo-4-(thiazol-2-ylamino)but-2-enoate]",–,3%,0%,0%,0%,0%,0%,0%,0%,15%,inhibit FLuc expression
